Experimental data: US11254671B2, “Chemical compounds” (GLAXOSMITHKLINE INTELLECTUAL PROPERTY DEVELOPMENT LIMITED, priority 2017, dated 2022)

System: type I collagen deposition in primary lung fibroblasts
Test: Highthroughput type I collagen deposition (scar-in-a-jar) high content screening assay
Type: cell-based
Conditions: Homo sapiens, Primary lung fibroblast, 72 h, human pulmonary fibroblasts, TGF-β 1 ng/ml, Ficoll crowding, mean of multiple experiments, read-out: mean pIC50, inhibition of type I collagen deposition (converted)
Procedure: Example 53 Highthroughput Type I Collagen Deposition (Scar-in-a-Jar) High Content Screening Assay
Highthroughput, cellular type I collagen deposition was measured by adapting a published method; scar-in-a-jar (Chen et al., 2009) to primary lung fibroblasts derived from human tissue and combining with high content analysis to permit fluorescent quantification of collagen deposited in the extracellular matrix (ECM). The human biological samples were sourced ethically and their research use was in accord with the terms of the informed consents
Test compounds were dissolved in 100% DMSO to give 10 mM (stocks) and further diluted to give half log dilutions to generate an 11 point concentration response curve. 1 ul was transferred to 384-well plates (Greiner Group, Kremsmunster, Austria, Catalogue No Greine 781280r).
Human pulmonary fibroblasts were maintained in DMEM media (Gibco, Catalogue No 21969) supplemented with 4 mM L-glutamine (Gibco Catalogue No 25030-024) and 10% heat inactivated FBS (Gibco, Catalogue No 10099-141) at 37° C. in 10% CO2. Cells were harvested and resuspended at 4×10^6 cells/ml in a T175 cell culture flask (BD Falcom, Catalogue No: 353112) containing 50 mL of culture media. After 4 days 37° C. in 10% CO2, cells were harvested and seeded at 4000 cells per well (50 μL/well) into 384-well plates (BD Falcon, Catalogue No 353962Greiner) in assay media (0.4% heat inactivated FBS, 4 mM L-glutamine). Plates were sealed with breathable seals (Sigma, Catalogue No. BEM-1). Assay plates were incubated for 72 h at 37° C. in 10% CO2.
Assay media was supplemented with 112.5 mg/ml Ficoll 70 (Sigma, Catalogue No F2878), 75 mg/ml Ficoll 400 (Sigma, Catalogue No F4375) and 50 μg/ml ascorbic acid (Sigma, Catalogue No A8960). 30 μL assay media were added to 1 μl compound (37 μM compound concentration in 1% DMSO). Diluted compounds (10 μL) were transferred to plates containing cells and incubated for 3 h at 37° C. in 10% CO2. Transforming growth factor (TGF)-β (R&D systems, Catalogue No 100-B/CF) was reconstituted to give 10 μg/mL (stock) and further diluted in assay media containing Ficoll and ascorbic acid (1 in 3333). TGF-β was added to cell plates (1 ng/ml final) and cells incubated for 72 h at 37° C. in 10% CO2.
Media was aspirated from cells and 30 μL/well 100% ice-cold methanol added and incubated at RT for 5 min to fix cells. Methanol was aspirated and cells washed with PBS (3×). To block and permeabilise, cells were incubated with PBS containing 1% BSA and 0.1% Triton X 100 for 20 min, followed by PBS wash (3×). Cells were incubated with mouse anti human type I collagen monoclonal antibody (Sigma, Catalogue No C2456) diluted 1:1000 in PBS for 24 h at 4° C. Cells were washed with PBS containing 0.1% Tween-20 (3×) and incubated with secondary alexa fluor 488 goat-anti-mouse antibody (Invitrogen, Catalogue No A11001, 1 in 500 in PBS) and Hoechst 33342 (Sigma, Catalogue No H21492), 1 in 1000 in PBS) for 1 h at RT, prior to washing with PBS containing 0.1% Tween (×4).
Type I collagen immunoreactivity was detected using the INCell 2000 Analyzer (GE Healthcare, INcell 2000) set to excitation and emission wavelengths for DAPI and FITC with laser focus and exposure adjusted to appropriate levels. Images were imported and analysed using Columbus software (Perkin Elmer) and computational algorithms to quantify “total collagen area” and “cell count”.
Data analysis was performed by determining % inhibition values for test compounds relative to the minimum (media only) and maximum responses (TGF-βstimulation) with non-linear regression analysis to determine IC50 values for test compounds.

Compound	IC50
CC[C@H]1COCCN1c1cc(C2(S(=O)(=O)C3CC3)CC2)cc(-c2ccc3[nH]c(CNC)cc3n2)n1 [Example 11, (S)-1-(5-(4-(1-(cyclopropylsulfonyl)cyclopropyl)-6-(3-ethylmorpholino)pyridin-2-yl)-1H-pyrrolo[3,2-b]pyridin-2-yl)-N-methylmethanamine]	39.8 to 100 nM
CNCc1cc2nc(-c3cc(C(C)(C)S(C)(=O)=O)cc(N4CCOC[C@@H]4C)n3)ccc2[nH]1 [Example 2, (S)—N-methyl-1-(5-(6-(3-methylmorpholino)-4-(2-(methylsulfonyl)propan-2-yl)pyridin-2-yl)-1H-pyrrolo[3,2-b]pyridin-2-yl)methanamine]	39.8 to 1000 nM
CNCc1cc2nc(-c3cc(C(C)(C)S(C)(=O)=O)cc(N4CC5CCC(C4)O5)n3)ccc2[nH]1 [Example 4, 1-(5-(6-(8-oxa-3-azabicyclo[3.2.1]octan-3-yl)-4-(2-(methylsulfonyl)propan-2-yl)pyridin-2-yl)-1H-pyrrolo[3,2-b]pyridin-2-yl)-N-methylmethanamine]	39.8 to 1000 nM
